Measured values from PubChem BioAssay (NCI).
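At the GI50, growth is halved. At the TGI there is no net growth.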

How the values were obtained:
Assay in all cases: growth of human tumour cells (NCI), 384-well format
U251 glioblastoma = tested on: U251 glioblastoma
UACC-62 melanoma = tested on: UACC-62 melanoma
IGROV1 ovarian = tested on: IGROV1 ovarian
LOX IMVI melanoma = tested on: LOX IMVI melanoma
PC-3 prostate = tested on: PC-3 prostate
SK-OV-3 ovarian = tested on: SK-OV-3 ovarian
HL-60(TB) leukemia = tested on: HL-60(TB) leukemia
NCI-H226 lung = tested on: NCI-H226 lung
BT-549 breast = tested on: BT-549 breast
NCI-H522 lung = tested on: NCI-H522 lung
EKVX NSCLC = tested on: EKVX NSCLC
SNB-19 CNS = tested on: SNB-19 CNS
MDA-MB-435 melanoma = tested on: MDA-MB-435 melanoma

SMILES | GI50 (U251 glioblastoma) | TGI (U251 glioblastoma) | GI50 (UACC-62 melanoma) | TGI (UACC-62 melanoma) | GI50 (IGROV1 ovarian) | TGI (IGROV1 ovarian) | GI50 (LOX IMVI melanoma) | TGI (LOX IMVI melanoma) | GI50 (PC-3 prostate) | TGI (PC-3 prostate) | GI50 (SK-OV-3 ovarian) | TGI (SK-OV-3 ovarian) | GI50 (HL-60(TB) leukemia) | TGI (HL-60(TB) leukemia) | GI50 (NCI-H226 lung) | TGI (NCI-H226 lung) | GI50 (BT-549 breast) | TGI (BT-549 breast) | GI50 (NCI-H522 lung) | TGI (NCI-H522 lung) | also measured
C=CC(=O)Nc1cc(Nc2nccc(-c3cn(C)c4ccccc34)n2)c(OC)cc1N(C)CCN(C)C | 1.8 µM | 3.25 µM | 1.64 µM | 3.02 µM | 0.44 µM | 1.88 µM | 2.06 µM | 3.5 µM | 1.61 µM | 3.09 µM | 1.74 µM | 5.73 µM | 0.756 µM | 1.94 µM | 0.863 µM | 2.2 µM | 1.33 µM | 2.62 µM | 0.0495 µM | 0.843 µM | GI50 (EKVX NSCLC): 0.617 µM; TGI (EKVX NSCLC): 2.17 µM; GI50 (SNB-19 CNS): 3.02 µM; TGI (SNB-19 CNS): 8.81 µM; GI50 (MDA-MB-435 melanoma): 2 µM; TGI (MDA-MB-435 melanoma): 3.55 µM
Cn1cc(-c2cc3c(N4CCN(c5ncc([C@@](C)(N)c6ccc(F)cc6)cn5)CC4)ncnn3c2)cn1 | 3.54 µM | 25.1 µM | 4.42 µM | 17.8 µM | 4.45 µM | 16.7 µM | 0.881 µM | 3.47 µM | 2.86 µM | 13.9 µM | 7.9 µM | 52.7 µM | 2.24 µM | 4.94 µM | 3.51 µM | 28.2 µM | 2.52 µM | 7.85 µM | 2.41 µM | 23.3 µM | GI50 (EKVX NSCLC): 2.97 µM; TGI (EKVX NSCLC): 31.6 µM; GI50 (SNB-19 CNS): 5.93 µM; TGI (SNB-19 CNS): 24.4 µM; GI50 (MDA-MB-435 melanoma): 7.13 µM; TGI (MDA-MB-435 melanoma): 27 µM
